Reference: publication PMC6591635, “Advancing the Therapeutic Potential of Indoleamides for Tuberculosis” (Antimicrobial Agents and Chemotherapy, 2019)
Converted amounts (≈) assume the structure as drawn. “And” between values parts separate entries of the source, which are not always exact repeats. Identical values can stand only once. Like-named read-outs stand apart in the source and are kept apart here. Marks after values point to notes of the source that are not given here.

How the values were obtained:
M. tuberculosis H37Rv [1] = assay: Field emission scanning electron microscopy of cell morphology (dimples per 100 bacilli); format: cell-based, Mycobacterium tuberculosis; conditions: 24 hours of treatment, FESEM; for Cell morphology (dimples per 100 cells, deformed bacilli): 10× MIC
[2] = Single dose pharmacokinetic study in mice (oral formulations, i.v.); format: in vivo, Swiss Webster mice; conditions: mouse
Protocol: To enhance oral bioavailability, we developed a novel formulation for compound 2 in propylene glycol (PG):Tween 80 (4:1, vol/vol). We compared the bioavailability of this new formulation with a previously reported formulation using 0.5% (wt/vol) carboxymethyl cellulose (CMC) ([19]). For oral (p.o.) administration, compound 2 was prepared in either formulation at 1 mg/ml of homogeneous suspension to achieve a 10-mg/kg dose level. For intravenous (i.v.) injection, a 0.22-mg/ml solution of compound 2 in PG:Tween 80:5% glucose at 20:10:70 (vol/vol/vol) was used. Five-week-old male Swiss Webster mice were randomly assigned to time points (3 mice per arm per time point). Serial blood samples of approximately 30 μl were collected at 0.25, 0.5, 1, 2, 4, 8, and 24 h after a single p.o. dose; and at 0.083, 0.33, 1, 2, 4, 8, and 24 h after a single i.v. dose. Plasma was harvested and stored at −80°C until analysis. Plasma samples were analyzed for compound 2 using liquid chromatography-tandem mass spectrometry (LC-MS/MS), with a limit of quantification of 1.05 ng/ml. Estimation of pharmacokinetic parameters was conducted using noncompartmental analysis with WinNonlin software (Phoenix 6.3).

M. tuberculosis H37Rv [3] = format: in vivo, Mycobacterium tuberculosis
M. tuberculosis H37Rv [4] = assay: animal or person; format: in vivo, Mycobacterium tuberculosis; conditions: for Lung CFU burden compared with untreated controls: 10 mg/kg, 4 weeks of treatment, P < 0.05; for ED50: Mycobacterium tuberculosis, H37RV, in Mus musculus, inhaled or nasal, 672 h, read-out: 50% effective dose (ED50)
M. tuberculosis H37Rv [5] = conditions: M. tuberculosis; stated without method in this paper; cited from earlier work
M. tuberculosis H37Rv [6] = test system: M. tuberculosis H37Rv; design: method as in PMID 27275668; conditions: 4 weeks of treatment, 0.5% (wt/vol) CMC formulation, previous study; cited from earlier work
in vitro = conditions: mouse, plasma
[7] = male, Swiss Webster, in vivo, po, 10 mg/kg
[8] = 50 mg/kg, 4 weeks of treatment, PG:Tween 80 formulation

With Cc1cc(C)c2cc(C(=O)NC3CCCCCCC3)[nH]c2c1 [compound 1] the “Cell morphology (unhealthy cells: dimples at poles and septum, wrinkled cell surface) versus untreated” value (M. tuberculosis H37Rv [1]; 1× and 10× MIC) was “significantly higher number of unhealthy cells” and the “Cell morphology (dimples per 100 cells, deformed bacilli)” value (M. tuberculosis H37Rv [1]) was “higher rate of deformed bacilli than 1× MIC”.
With C[C@@H]1[C@H]2C[C@@H](C[C@H]1NC(=O)c1cc3c(F)cc(F)cc3[nH]1)C2(C)C [compound 2] the “F (relative bioavailability)” value ([2]; 10 mg/kg p.o., PG:Tween 80 formulation (suspension)) was 96%, the F ([2]; Swiss Webster, in vivo) was 22% and the “F (relative bioavailability)” value ([2]; male, Swiss Webster, in vivo) was 22%. The “Time for which plasma concentration of free compound exceeded the MIC postdose” value ([2]; male, Swiss Webster, in vivo) was 24 h, the “Increase in relative bioavailability compared with the CMC formulation” value [2, 7] was 74% and the Tmax [2, 7] was 1.00 ± 0.00 h. For the same molecule, the Tmax ([2]; male, Swiss Webster, in vivo, po, 10 mg/kg, Tmax) was 1.25 ± 1.06 h, the “Lung CFU count lower than that of positive control ethambutol at 100 mg/kg” value (M. tuberculosis H37Rv [3]; [8]) was 1.2 log and the “Mean lung CFU count lower than that of untreated controls” value (M. tuberculosis H37Rv [3]; [8]) was 4.66 log. For the same molecule, the “Lung CFU counts, Week 2” value (M. tuberculosis H37Rv [3]; […], compound 2 in PG:Tween 80) was 3.40 (NA)^b^,^c, the “Lung CFU counts, Week 4” value (M. tuberculosis H37Rv [3]; […], compound 2 in PG:Tween 80) was 2.82 (0.34)^b and the “Lung CFU burden compared with untreated controls” value (M. tuberculosis H37Rv [4]) was “significantly reduced the lung CFU burden”. The ED50 (M. tuberculosis H37Rv [4]) was 28.9 mg/kg, the MIC (M. tuberculosis H37Rv [5]) was 4 ng/mL (≈ 0.012 µM) and the “Lung CFU counts higher than positive control ethambutol at 100 mg/kg” value (M. tuberculosis H37Rv [6]) was 2.0 log. The fraction unbound (in vitro) was 0.032.
In the case of CC1(C)CCC(NC(=O)c2cc3c(Cl)cc(Cl)cc3[nH]2)CC1 [compound 3], the “Lung CFU burden compared with untreated controls” value (M. tuberculosis H37Rv [4]) is reported as “did not”, the ED50 (M. tuberculosis H37Rv [4]) is reported as 43 mg/kg and the “Lung CFU, D28” value (M. tuberculosis H37Rv [4]; in vivo) is reported as 7.05±0.09 and 6.99±0.19 and 5.66±0.14 and 4.15±0.06 and 3.65±0.11.
In the case of CC[C@@H](CO)NCCN[C@@H](CC)CO [ethambutol, reference compound], the “Lung CFU counts, Week 2” value (M. tuberculosis H37Rv [3]; […], compound 2 in PG:Tween 80) is reported as 4.34 (0.25)^b, the “Lung CFU counts, Week 4” value (M. tuberculosis H37Rv [3]; […], compound 2 in PG:Tween 80) is reported as 5.60 (0.24)^b and the “Lung CFU counts, Week 2” value (M. tuberculosis H37Rv [3]; in vivo) is reported as 3.56 (0.26)^b. The “Lung CFU counts, Week 4” value (M. tuberculosis H37Rv [3]; in vivo) was 4.02 (0.28)^b.
With NNC(=O)c1ccncc1 [isoniazid, reference compound] the “Cell morphology (dimples per 100 cells, deformed bacilli)” value (M. tuberculosis H37Rv [1]) was “more dimples per 100 cells than no treatment, but the difference did not reach statistical significance”.
